According to PubChem BioAssay AID743417 (Broad Institute, 2014):
Several values for one entry are separate records, joined by “and”; a condition that tells them apart may be missing. Equal entries are not always repeated. Records with an inconclusive call do not appear.

Test system: Clone20 osteoblast Shn3 3'UTR firefly luciferase, 24 h
Assay: Shn3 3'UTR reporter inhibitors, dose response, cell-based, Clone20 osteoblasts, luminescence, dry powder, set 2 (AID 743417)

| Compound | AC50 |
| --- | --- |
| c1ccc(-c2cc(CSc3nc4ccccc4[nH]3)on2)cc1 | 3.76 µM |
| Oc1ccc(-c2n[nH]c(C(F)(F)F)c2-c2ccccc2)c(O)c1 | 0.283 µM |
| O=[N+]([O-])c1c(NCCCO)cc(Sc2ccc(Cl)cc2)c2nonc12 | 5.63 µM |
| CC(=O)O[C@H]1CC[C@@]2(C)C(=CC[C@H]3[C@@H]4CC[C@H](C(C)=O)[C@@]4(C)CC[C@@H]32)C1 | 28.5 µM |
| CCCCN1CC(COCc2ccccc2)Oc2cccc(Oc3cc(C)c(C)c(C)c3)c2S1(=O)=O (centres undefined) | 9.16 µM |
| Cc1cccc(C)c1NC(=O)c1nc(S(=O)(=O)Cc2ccccc2)ncc1Cl | 4.33 µM |
| Cc1cc(/C=C2/SC(=S)N(c3cccc(Cl)c3)C2=O)c(C)n1-c1cccnc1 | 0.979 µM |
| C[C@@H]1CCCCO[C@H](CN(C)Cc2ccccc2)[C@@H](C)CN([C@H](C)CO)C(=O)c2cc(NC(=O)c3ccccc3)ccc2O1 | 31.3 µM |
| Cc1cccc(-c2noc(CN(C(=O)C(c3ccccc3)c3ccccc3)C(C)C)n2)c1 | 6.27 µM |
| CCCC(=O)NC(c1ccc(OC)cc1)c1ccc2cccnc2c1O (centres undefined) | 1.18 µM |
| O=C(Nc1nc(-c2ccccn2)cs1)c1ccc(Cl)s1 | 0.817 µM |
| CCN(CC)c1ccc(CNc2nc3ccccc3n2CCN2CCCCC2)cc1 | 2.64 µM |
| Cc1ccc(CNC(=O)CSc2c3c(nc4ccc(Cl)cc24)CCCC3)o1 | 5.98 µM |
| COCCN(CC(=O)NC1CCCCC1)C(=O)/C=C/C(=O)c1ccc(OC)cc1O | 2.58 µM |
| CCCCCCCCOC(=O)c1cc([N+](=O)[O-])c(Sc2ncnc3nc[nH]c23)c([N+](=O)[O-])c1 | 2.81 µM |
| Cc1ccc(C(=O)/C=C/c2ccc(-c3ccc(C)cc3)o2)cc1 | 2.79 µM |
| CC(=O)c1cn(CCOc2cc(C)ccc2C)c2ccccc12 | 1.18 µM |
| COc1ccccc1N(C)S(=O)(=O)c1ccc(C(=O)Nc2cc(F)ccc2C)cc1 | 13.8 µM |
| Cc1cccc(C(C)(C)C)c1OCCN1CCCC1 | 34.2 µM |
| COc1cc(NC(=O)Cn2ncc(Cl)c(Cl)c2=O)c(C)cc1[N+](=O)[O-] | 3.44 µM |
| Cc1ccc(C(=O)N2c3ccccc3N(Cc3ccccc3)C(=O)C2(C)C)cc1 | 6.92 µM |
| CC(=O)OC1(C)CC(C)C(=O)C(C(O)CC2CC(=O)NC(=O)C2)C1 (centres undefined) | < 0.26 µM |
| Cc1c(C(C)C)c(=O)n(-c2ccc(S(=O)(=O)NC3CCCCC3)cc2)n1C | 1.06 µM |
| Nc1nc(Cl)cc(N2CCC(c3cc(-c4ccc(Cl)cc4)n[nH]3)CC2)n1 | 2.43 µM |
| COc1cccc(-c2nc(NC3CCCC3)c3ccccc3n2)c1O | 25 µM |
| Cc1cc(Cl)n2c(nc3ccccc32)c1C#N | 1.85 µM |

| Compound | AC50 |
| --- | --- |
| Cc1ccccc1NC(=O)CSc1nc2ccccc2c(=O)n1C | 7.64 µM |
| CCOc1ccc(C(=O)C(CCC(CN(C)C)C(=O)c2ccc(OCC)cc2)CN(C)C)cc1 (centres undefined) | 1.61 µM |
| C[C@H]1CCC/C=C/[C@@H]2C[C@H](O)C[C@H]2[C@@H](O)/C=C/C(=O)O1 | 2.17 µM |
| Cn1nc(C(C)(C)C)cc1C(=O)N1CCCCC1c1cc(C(=O)Nc2cccc3c2CCCC3)no1 (centres undefined) | 10.2 µM |
| Cc1ccc2nc(-c3cccc(SC4CCCCC4)c3)c(NCc3ccccc3)n2c1 | 3.53 µM |
| Cc1ccn2c(Nc3ccccc3)c(-c3ccccn3)nc2c1 | 2.31 µM |
| O=C(C1CCC(CNS(=O)(=O)c2cccs2)CC1)N1CCN(c2ccc(Cl)cc2)CC1 (centres undefined) | 1.61 µM |
| COCOCCn1cc(CN2CCS(=O)(=O)N(Cc3ccc(-c4ccc(Cl)c(Cl)c4)cc3)C(C(C)C)C2=O)nn1 (centres undefined) | 1.35 µM |
| CCN1CCN(Cc2ccc(NC(=O)c3ccc(C)c(NC(=O)c4cncc(-c5cccs5)c4)c3)cc2C(F)(F)F)CC1 | 0.808 µM |
| OCCCNc1cc(-c2ccnc(Nc3cccc(Cl)c3)n2)ccn1 | < 0.26 µM |
| O=C(c1cnc(N2CCN(c3ccccn3)CC2)c2ccccc12)N1CCN(c2cccc(Cl)c2)CC1 | 1.99 µM |
| Cc1ccc2nc(NC(=O)C3CCN(S(=O)(=O)c4ccc5c(c4)oc(=O)n5C)CC3)sc2c1 | 3.35 µM |
| O=C(Nc1cccc(C(F)(F)F)c1)Nc1ccc(N2CCCC2)c(S(=O)(=O)Nc2ccccc2Cl)c1 | 4.42 µM |
| O=C(O)c1cccc(COc2ccc(CO)cc2Cl)c1 | 1.04 µM |
| COc1ccc(-n2nc3c(N4CCC(C(=O)NCC(C)c5ccccc5)CC4)nnc(C)c3c2C)cc1 (centres undefined) | 3.25 µM |
| CCN(CCCl)c1cc(CN(C)C)cc(NC(=O)c2ccc(C(=O)Nc3cc(CN(C)C)cc(N(CC)CCCl)c3)cc2)c1 | 2.65 µM |
| Cc1cc(O)c(C(C)C)cc1C1(c2cc(C(C)C)c(O)cc2C)OC(=O)c2ccccc21 | 9.45 µM |
| CCOc1ccc(Cn2nnc(C(=O)Nc3cc(OC)cc(OC)c3)c2N)cc1 | 5.3 µM |
| Cc1cc2c(cc(C(=O)OC(C(=O)NC3CCCCC3)C(C)C)n2C)o1 (centres undefined) | 5.9 µM |
| CCOC(=O)c1c(C)[nH]c(C)c1C(=O)CSc1nc2ccccc2c(=O)n1-c1ccc(CC)cc1 | 5.36 µM |
| COc1ccc2c(c1)sc1nc(-c3ccccc3)cn12 | 7.37 µM |
| Cc1ccc(NC(=O)c2oc3ccccc3c2COC(C)C)cc1S(=O)(=O)N1CCOCC1 | 14.4 µM |
| CCCCCCCN(c1ccccc1)[C@@H]1C[C@H]2CCCC(=O)N3CC[C@@H](C1)[C@@H]23 | 11.5 µM |
| COc1ccc(C(=O)/C=C/C(=O)N(CC(=O)NCCC(C)C)Cc2cccs2)c(O)c1 | 3.49 µM |
| NC1=NC[C@H](c2ccccc2)N1CCCCC1CCCCC1 | 4.23 µM |
| Cc1ccc(-n2ncc3c2CCCC3NC(=O)c2ocnc2C)cc1C (centres undefined) | 1.29 µM |

| Compound | AC50 |
| --- | --- |
| Cc1cccc(N2C(=O)NC(=O)/C(=C\C=C\c3ccco3)C2=O)c1 | 3.06 µM |
| O=C(c1ccccc1)N1CCN(c2ncnc3sc4c(c23)CCC4)CC1 | 4.14 µM |
| Cc1onc(-c2ccccc2Cl)c1C(=O)N1CCC(Cc2ccccc2)CC1 | 2.29 µM |
| CCn1c(C)nc2cc(-c3nnc(-c4c(-c5ccccc5)noc4C)o3)ccc21 | 5.82 µM |
| CCOC(=O)COc1ccc2ccccc2c1/C=C/[N+](=O)[O-] | 5.2 µM |
| O=S(=O)(c1ccc2c(c1)OCCO2)N1CCN(c2ncnc3sccc23)CC1 | 1.45 µM |
| O=C(c1ccc(S(=O)(=O)c2ccc(F)cc2)c([N+](=O)[O-])c1)N1CCCCCC1 | 2.38 µM |
| CCN1CCN(Cc2ccc(NC(=O)c3ccc(C)c(/C=C/c4cnc(Nc5cc(N6CCNCC6)nc(C)n5)cn4)c3)cc2C(F)(F)F)CC1 | 9.56 µM |
| C=C1CC(COc2ccc3c(C)c(Cl)c(=O)oc3c2)(c2ccccc2)OC1=O (centres undefined) | 4.82 µM |
| Cc1nc2ccccc2n1Cc1ccc(Cl)cc1 | 1.46 µM |
| O=C(NNc1ccnc2cc(Cl)ccc12)C1CCCCC1 | < 0.26 µM |
| COc1cc2c(OC(C)=O)c3c(c(-c4ccc5c(c4)OCO5)c2cc1OC)C(=O)OC3 | 1.8 µM |
| CCCCNc1nc2c(c(=O)n(C)c(=O)n2C)n1Cc1cccc(OC)c1 | 0.284 µM |
| COc1ccc(Cc2nccc3cc(OC)c(OC)cc23)cc1OC | 2.48 µM |
| CC1=NOC(=O)/C1=C\c1ccc(-c2cc(Cl)ccc2Cl)o1 | 5.69 µM |
| COc1cc(NC(=O)c2cccc3c(-c4cccnc4)coc23)cc(OC)c1OC | 0.978 µM |
| CS(=O)(=O)c1nc(-c2ccccc2)cc(C(F)(F)F)n1 | 1.53 µM |
| CCOc1cc(N2CCOCC2)c(OCC)cc1NC(=O)COc1cccc2cccnc12 | 2.41 µM |
| CCC1CCCCN1S(=O)(=O)c1ccc(NC(=O)c2nc(S(C)(=O)=O)ncc2Cl)cc1 (centres undefined) | 0.341 µM |
| CCOC(=O)/C=C/C(=O)OCC(=O)NC(c1ccccc1)c1ccccc1 | 5.14 µM |
| COc1ccc(CC(N)c2csc(NC(=O)Nc3ccc(C(C)C)cc3)n2)cc1 (centres undefined) | 5.16 µM |
| COc1ccc(NC(=O)c2sc3ncnc(N4CCN(c5ccccn5)CC4)c3c2C)cc1Cl | 4.08 µM |
| CCN1CCN(Cc2ccc(NC(=O)c3cc(NC(=O)c4cc5cccc(OC)c5o4)cc(OC)c3)cc2C(F)(F)F)CC1 | 10.2 µM and 9.77 µM |
| CCN(CC)CCNc1cc(C)nc2c1C(=O)C(=O)C=C2N1CCCCC1 | 6.61 µM |
| CC(C)C(=O)NC(c1ccco1)c1ccc2cccnc2c1O (centres undefined) | 2.05 µM |
| CC(C)n1c(/C=C/[C@H](O)C[C@H](O)CC(=O)O)c(-c2ccc(F)cc2)c2ccccc21 | 1.42 µM |

| Compound | AC50 |
| --- | --- |
| O=C(Nc1ccc(Br)cc1)c1ccc(F)c(S(=O)(=O)NCc2cccs2)c1 | 3.05 µM |
| Cc1cc(S(=O)(=O)c2ccc([N+](=O)[O-])cn2)ccc1Br | 3.69 µM |
| Fc1ccc(C(OCCN2CCN(CCCc3ccccc3)CC2)c2ccc(F)cc2)cc1 | 6.17 µM |
| CC1=C(C(=O)NC2CCCc3c2cnn3-c2cccc(C)c2C)OCCO1 (centres undefined) | 3.49 µM |
| COc1ccc(C(C(=O)NC2CCCCC2)N(C(=O)CCl)c2ccc(OC)cc2)cc1 (centres undefined) | 5.56 µM |
| COC(=O)c1c(-c2cccc3ccccc23)csc1NC(=O)Cc1ccc(OC)c(OC)c1 | 5.43 µM |
| CCOC(=O)CC1CCCCN1C(=O)c1cc(COc2cccc3cnccc23)on1 (centres undefined) | 0.713 µM |
| CN(C)c1ccc(C=c2c3cc([N+](=O)[O-])ccc3n3c2cc(-c2ccccc2)[n+]3C)cc1 | 3.3 µM |
| O=C(Cc1ccc(Cl)cc1Cl)Nc1ccncc1 | 2.56 µM |
| Cc1ccc(F)cc1CNC(=O)c1cc(COc2ccc3ncccc3c2)on1 | 4.88 µM |
| C=C1CC2(OC1=O)c1ccccc1CCc1ccccc12 | 1.28 µM |
| Cc1ccc(NC(=O)C2CCN(S(=O)(=O)c3ccc4c(c3)NC(=O)C(C)S4)CC2)cc1Cl (centres undefined) | 2.83 µM |
| COc1ccc2c(c1)c(CC(=O)Nc1cc(C)ccc1C)c(C)n2C(=O)c1ccc(Cl)cc1 | 5.69 µM |
| COc1ccccc1C(CCNCc1ccc(N(C)C)cc1)c1ccc(OC(C)C)cc1 (centres undefined) | 6.48 µM |
| C=C(C)C(=O)O[C@H]1C/C(C)=C\C(=O)/C=C(\C)[C@H](O)[C@@H]2OC(=O)C(=C)[C@@H]21 | 3.02 µM |
| COc1ccccc1NC(=O)Nc1nc(C(N)Cc2ccc(C(F)(F)F)cc2)cs1 (centres undefined) | 10.3 µM |
| CCn1nc(/C=C/c2ccccc2)nc2c(=O)n(C)c(=O)nc1-2 | 2.57 µM |
| C=C1C(=O)[C@]23C[C@H]1CCC2[C@@]1(C)C(C[C@@H]3O)[C@](C)(C(=O)OC)CC[C@@H]1OC(C)=O (some centres undefined) | 2.14 µM |
| Cc1ccc(Cn2ccc(NC(=O)c3nn(C)cc3[N+](=O)[O-])n2)cc1 | 4.09 µM |
| COc1ccccc1-c1c(-c2ccc(O)cc2O)n[nH]c1C(F)(F)F | 0.708 µM |
| Cc1c(Cl)sn(-c2ccc(Cl)cc2)c1=O | 0.728 µM |
| C=CCn1c(NCCc2ccccc2)nc2c1c(=O)n(C)c(=O)n2C | 1.83 µM |
| Cc1nc2ccccc2cc1OCc1ccc(F)cc1 | 1.7 µM |
| Cc1cc(C)nc(/N=C(\N)Nc2ccc(-c3ccccc3)cc2)n1 | 4.45 µM |
| COCCNc1nc(NCc2ccc(C(C)C)cc2)c2sccc2n1 | 3.95 µM |
| Fc1ccc(-n2nnnc2-c2cnc(-c3cccs3)nc2C(F)(F)F)cc1 | 4.44 µM |
